In ChEMBL document CHEMBL3885881, “DrugMatrix”:
Where “and” joins values, the source holds several entries; their conditions need not be identical. Identical values can stand only once.

Species on record: Rattus norvegicus
Experiment: DrugMatrix - Regimen: Daily Repeat
Type: toxicity, organism-based, Sprague-Dawley
Parameters: regimen Daily Repeat, gender Male, age 6-8 weeks
Settings: in vivo, po, 0 mg/kg, route oral GAVAGE, dose level Control, vehicle .5 % CMC; for BASOPHIL / EOSINOPHIL / ERYTHROCYTE COUNT / HEMATOCRIT / HEMOGLOBIN / LEUKOCYTE COUNT / LYMPHOCYTE / MEAN CORPUSCULAR HEMOGLOBIN / MEAN CORPUSCULAR HEMOGLOBIN CONCENTRATION / MEAN CORPUSCULAR VOLUME / MONOCYTE / NEUTROPHIL / PLATELET COUNT / ABSOLUTE BASOPHIL / ABSOLUTE EOSINOPHIL / ABSOLUTE LYMPHOCYTE / ABSOLUTE MONOCYTE / ABSOLUTE SEGMENTED NEUTROPHIL: tissue Blood; for ALANINE AMINOTRANSFERASE / ALBUMIN / ALKALINE PHOSPHATASE / ASPARTATE AMINOTRANSFERASE / BLOOD UREA NITROGEN / CHLORIDE / CHOLESTEROL / CREATINE PHOSPHOKINASE / CREATININE / GLUCOSE / PHOSPHORUS / POTASSIUM / SODIUM / TOTAL BILIRUBIN / TOTAL PROTEIN / LACTATE DEHYDROGENASE / LIPASE / URIC ACID: tissue Plasma

Cc1ccc2cc3c(ccc4ccccc43)c3c2c1CC3 [3-METHYLCHOLANTHRENE]
BASOPHIL (72 h, time 3 day): 0.52% | EOSINOPHIL (72 h, time 3 day): 0.48% | ERYTHROCYTE COUNT (72 h, time 3 day): 6.68 x10E6/uL | HEMATOCRIT (72 h, time 3 day): 43.07% | HEMOGLOBIN (72 h, time 3 day): 13.48 G/DL | LEUKOCYTE COUNT (72 h, time 3 day): 11.41 x10E3/uL | LYMPHOCYTE (72 h, time 3 day): 80.78% | MEAN CORPUSCULAR HEMOGLOBIN (72 h, time 3 day): 20.2 pg | MEAN CORPUSCULAR HEMOGLOBIN CONCENTRATION (72 h, time 3 day): 31.32 G/DL | MEAN CORPUSCULAR VOLUME (72 h, time 3 day): 64.45 fL | MONOCYTE (72 h, time 3 day): 2.23% | NEUTROPHIL (72 h, time 3 day): 14.73% | PLATELET COUNT (72 h, time 3 day): 1225.83 x10E3/uL | ALANINE AMINOTRANSFERASE (72 h, time 3 day): 44.5 u/L | ALBUMIN (72 h, time 3 day): 3.62 G/DL | ALKALINE PHOSPHATASE (72 h, time 3 day): 404.5 u/L | ASPARTATE AMINOTRANSFERASE (72 h, time 3 day): 71.67 u/L | BLOOD UREA NITROGEN (72 h, time 3 day): 15 mg/dL | CHLORIDE (72 h, time 3 day): 103 MEQ/L | CHOLESTEROL (72 h, time 3 day): 96.83 mg/dL | CREATINE PHOSPHOKINASE (72 h, time 3 day): 236 u/L | CREATININE (72 h, time 3 day): 0.43 mg/dL | GLUCOSE (72 h, time 3 day): 186.83 mg/dL | PHOSPHORUS (72 h, time 3 day): 12.67 mg/dL | POTASSIUM (72 h, time 3 day): 7.1 MEQ/L | SODIUM (72 h, time 3 day): 147.33 MEQ/L | TOTAL BILIRUBIN (72 h, time 3 day): 0.52 mg/dL | TOTAL PROTEIN (72 h, time 3 day): 6.18 G/DL | ABSOLUTE BASOPHIL (120 h, time 5 day): 92 cells/µL | ABSOLUTE EOSINOPHIL (120 h, time 5 day): 52 cells/µL | ABSOLUTE LYMPHOCYTE (120 h, time 5 day): 6560 cells/µL | ABSOLUTE MONOCYTE (120 h, time 5 day): 160 cells/µL | ABSOLUTE SEGMENTED NEUTROPHIL (120 h, time 5 day): 1130 cells/µL | BASOPHIL (120 h, time 5 day): 1.14% and 0.92% | EOSINOPHIL (120 h, time 5 day): 0.68% and 0.43% | ERYTHROCYTE COUNT (120 h, time 5 day): 7.51 x10E6/uL and 7.03 x10E6/uL | HEMATOCRIT (120 h, time 5 day): 46.04% and 46.55% | HEMOGLOBIN (120 h, time 5 day): 15.62 G/DL and 14.32 G/DL | LEUKOCYTE COUNT (120 h, time 5 day): 8.03 x10E3/uL and 12.22 x10E3/uL | LYMPHOCYTE (120 h, time 5 day): 81.54% and 82.65% | MEAN CORPUSCULAR HEMOGLOBIN (120 h, time 5 day): 20.84 pg and 20.35 pg | MEAN CORPUSCULAR HEMOGLOBIN CONCENTRATION (120 h, time 5 day): 33.94 G/DL and 30.77 G/DL | MEAN CORPUSCULAR VOLUME (120 h, time 5 day): 61.42 fL and 66.28 fL | MONOCYTE (120 h, time 5 day): 2% and 2.28% | NEUTROPHIL (120 h, time 5 day): 14.24% and 12.73% | PLATELET COUNT (120 h, time 5 day): 1427.2 x10E3/uL and 1268.67 x10E3/uL | ALANINE AMINOTRANSFERASE (120 h, time 5 day): 35.6 u/L and 44.5 u/L | ALBUMIN (120 h, time 5 day): 3.64 G/DL and 3.73 G/DL | ALKALINE PHOSPHATASE (120 h, time 5 day): 233 u/L and 340.83 u/L | ASPARTATE AMINOTRANSFERASE (120 h, time 5 day): 81 u/L and 66.5 u/L | BLOOD UREA NITROGEN (120 h, time 5 day): 12 mg/dL and 13.33 mg/dL | CHLORIDE (120 h, time 5 day): 109.4 MEQ/L and 102.17 MEQ/L | CHOLESTEROL (120 h, time 5 day): 47.6 mg/dL and 82.17 mg/dL | CREATINE PHOSPHOKINASE (120 h, time 5 day): 183.2 u/L and 146.67 u/L | CREATININE (120 h, time 5 day): 0.4 mg/dL and 0.35 mg/dL | GLUCOSE (120 h, time 5 day): 134.6 mg/dL and 186.17 mg/dL | LACTATE DEHYDROGENASE (120 h, time 5 day): 89.4 u/L | LIPASE (120 h, time 5 day): 17.2 u/L | PHOSPHORUS (120 h, time 5 day): 13.02 mg/dL and 11.83 mg/dL | POTASSIUM (120 h, time 5 day): 7 MEQ/L and 6.47 MEQ/L | SODIUM (120 h, time 5 day): 149.6 MEQ/L and 148.83 MEQ/L | TOTAL PROTEIN (120 h, time 5 day): 6.06 G/DL and 6.27 G/DL | URIC ACID (120 h, time 5 day): 1.04 mg/dL | ABSOLUTE BASOPHIL (2184 h, time 91 day): 130 cells/µL | ABSOLUTE EOSINOPHIL (2184 h, time 91 day): 70 cells/µL | ABSOLUTE LYMPHOCYTE (2184 h, time 91 day): 8670 cells/µL | ABSOLUTE MONOCYTE (2184 h, time 91 day): 160 cells/µL | ABSOLUTE SEGMENTED NEUTROPHIL (2184 h, time 91 day): 1530 cells/µL | BASOPHIL (2184 h, time 91 day): 1.13% | EOSINOPHIL (2184 h, time 91 day): 0.66% | ERYTHROCYTE COUNT (2184 h, time 91 day): 9.13 x10E6/uL | HEMATOCRIT (2184 h, time 91 day): 48.47% | HEMOGLOBIN (2184 h, time 91 day): 16.56 G/DL | LEUKOCYTE COUNT (2184 h, time 91 day): 10.5 x10E3/uL | LYMPHOCYTE (2184 h, time 91 day): 81.63% | MEAN CORPUSCULAR HEMOGLOBIN (2184 h, time 91 day): 18.16 pg | MEAN CORPUSCULAR HEMOGLOBIN CONCENTRATION (2184 h, time 91 day): 34.14 G/DL | MEAN CORPUSCULAR VOLUME (2184 h, time 91 day): 53.14 fL | MONOCYTE (2184 h, time 91 day): 1.53% | NEUTROPHIL (2184 h, time 91 day): 14.71% | PLATELET COUNT (2184 h, time 91 day): 1280.22 x10E3/uL | ALANINE AMINOTRANSFERASE (2184 h, time 91 day): 28.89 u/L | ALBUMIN (2184 h, time 91 day): 3.69 G/DL | ALKALINE PHOSPHATASE (2184 h, time 91 day): 101.11 u/L | ASPARTATE AMINOTRANSFERASE (2184 h, time 91 day): 70.67 u/L | BLOOD UREA NITROGEN (2184 h, time 91 day): 16.78 mg/dL | CHLORIDE (2184 h, time 91 day): 104.56 MEQ/L | CHOLESTEROL (2184 h, time 91 day): 58.78 mg/dL | CREATINE PHOSPHOKINASE (2184 h, time 91 day): 91.22 u/L | CREATININE (2184 h, time 91 day): 0.61 mg/dL | GLUCOSE (2184 h, time 91 day): 142.33 mg/dL | LACTATE DEHYDROGENASE (2184 h, time 91 day): 81.67 u/L | LIPASE (2184 h, time 91 day): 13 u/L | PHOSPHORUS (2184 h, time 91 day): 7.54 mg/dL | POTASSIUM (2184 h, time 91 day): 6.27 MEQ/L | SODIUM (2184 h, time 91 day): 149.89 MEQ/L | TOTAL BILIRUBIN (2184 h, time 91 day): 0.19 mg/dL | TOTAL PROTEIN (2184 h, time 91 day): 7.12 G/DL | URIC ACID (2184 h, time 91 day): 0.97 mg/dL | ABSOLUTE BASOPHIL ([…], time 28 day): 150 cells/µL | ABSOLUTE EOSINOPHIL ([…], time 28 day): 54 cells/µL | ABSOLUTE LYMPHOCYTE ([…], time 28 day): 8890 cells/µL | ABSOLUTE MONOCYTE ([…], time 28 day): 190 cells/µL | ABSOLUTE SEGMENTED NEUTROPHIL ([…], time 28 day): 2250 cells/µL | BASOPHIL ([…], time 28 day): 1.26% | EOSINOPHIL ([…], time 28 day): 0.46% | ERYTHROCYTE COUNT ([…], time 28 day): 8.34 x10E6/uL | HEMATOCRIT ([…], time 28 day): 48.66% | HEMOGLOBIN ([…], time 28 day): 16.04 G/DL | LEUKOCYTE COUNT ([…], time 28 day): 11.58 x10E3/uL | LYMPHOCYTE ([…], time 28 day): 76.74% | MEAN CORPUSCULAR HEMOGLOBIN ([…], time 28 day): 19.2 pg | MEAN CORPUSCULAR HEMOGLOBIN CONCENTRATION ([…], time 28 day): 32.92 G/DL | MEAN CORPUSCULAR VOLUME ([…], time 28 day): 58.32 fL | MONOCYTE ([…], time 28 day): 1.76% | NEUTROPHIL ([…], time 28 day): 19.44% | PLATELET COUNT ([…], time 28 day): 1282.6 x10E3/uL | ALANINE AMINOTRANSFERASE ([…], time 28 day): 27 u/L | ALBUMIN ([…], time 28 day): 3.68 G/DL | ALKALINE PHOSPHATASE ([…], time 28 day): 146.2 u/L | ASPARTATE AMINOTRANSFERASE ([…], time 28 day): 66.6 u/L | BLOOD UREA NITROGEN ([…], time 28 day): 12.4 mg/dL | CHLORIDE ([…], time 28 day): 104.6 MEQ/L
